According to patent US20250011365A1, “ECHINOCANDIN-BASED DRUG, AND PREPARATION METHOD THEREFOR AND USE THEREOF” (Shenzhen Sungening Biological Co., Ltd, priority 2023, published 2025):
Numbered stars: 1 amine (or outer) side, 2 acyl side, 3 side chain; on linkers, the order of the positions; unused ones are H or OH. Bridge positions count the residues as written; N and C are the ends. Square brackets hold non-standard residues; d marks the D form. Peptide text beside a SMILES is read from it. * marks the point of attachment. Orn(4R-OH,5R-OCH2CH2NMe3+) = C[N+](C)(C)CCO[C@@H](N[*:3])[C@H](O)C[C@H](N[*:1])C(=O)[*:2]; pTerphenylCO(4''-OnC5H11) = CCCCCOc1ccc(-c2ccc(-c3ccc(C(=O)*)cc3)cc2)cc1; hTyr(3S-OH,4S-OH) = N[C@H](C(=O)O)[C@H](O)[C@@H](O)c1ccc(O)cc1; X4 = CCCCCOc1c(F)cc(C#Cc2ccc3cc(C(=O)*)ccc3c2)cc1F; Pro(3S-OH,4S-Me) = C[C@H]1CN[C@H](C(=O)O)[C@H]1O; X3 = CCCCCOc1ccc(C#Cc2ccc3cc(C(=O)*)ccc3c2)cc1F; Hyp = O=C(O)[C@@H]1C[C@@H](O)CN1

Key:
[1] = test system: Cryptococcus neoformans ATCC 208821; assay: MIC assay, yeast-type fungi (CLSI M27-A3); assay type: cell-based; settings: ATCC208821, 24 h, 35° C.
[2] = test system: Candida albicans ATCC 76485; assay: MIC assay, Candida standard strain (CLSI M27-A3); assay type: cell-based; settings: ATCC76485, 24 h, 35° C.
Protocol: (§1) After gradient dilution of test compounds, an MIC assay was performed on a Candida standard strain, and an MEC assay was performed on an Aspergillus standard strain. […] A cryopreserved strain was passaged at least 2 times. A single colony was picked and resuspended in a physiological saline or sterile water tube, and the tube was subjected to vortex shaking. The Candida suspension was adjusted to 0.5 McF (1×10^6-5×10^6 CFU/mL) at a wavelength of 530 nm by using a spectrophotometer. After being diluted 50 times with physiological saline, the Candida suspension was diluted 20 times with 1×RPMI 1640 broth (1×10^3-5×10^3 CFU/mL). 10 μL of the diluted Candida suspension was coated on an SDA plate for colony counting, with a range of about 10-50 single colonies. After a prepared drug sensitive plate was completely dissolved at room temperature, the Candida suspension was added to the 96-well plate by using a multi-channel pipettor at 100 μL/well. At this time, the concentration of Candida in each well should be 0.5×10^3-2.5×10^3 CFU/mL. A yeast-type fungus assay plate was placed in an incubator, and incubated for 24 h at 35° C. and 85% humidity, and then the MIC values were read. For echinocandin-based drugs, Aspergillus was incubated for 21-26 h at 28° C., and then the MEC results were read. Yeast-type fungi: A 96-well plate was attached with a disposable parafilm, shaken for uniformly mixing, and observed with naked eyes by using a plate reader microscope. […] Pictures were taken and saved by using an automated plate reader.

[3] = test system: Candida albicans ATCC MYA-427; assay: MIC assay, Candida standard strain (CLSI M27-A3); assay type: cell-based; settings: 24 h, 35° C.
Protocol: as §1

[4] = test system: Candida albicans ATCC 64124; assay: MIC assay, Candida standard strain (CLSI M27-A3); assay type: cell-based; settings: ATCC64124, 24 h, 35° C.
Protocol: as §1

[5] = test system: Candida albicans ATCC MYA-574; assay: MIC assay, Candida standard strain (CLSI M27-A3); assay type: cell-based; settings: 24 h, 35° C.
Protocol: as §1

[6] = test system: Candida albicans CMCC 98001; assay: MIC assay, Candida standard strain (CLSI M27-A3); assay type: cell-based; settings: CMCC98001, 24 h, 35° C.
Protocol: as §1

[7] = test system: C. tropicalis ATCC 750; assay: MIC assay, Candida standard strain (CLSI M27-A3); assay type: cell-based; settings: ATCC750, 24 h, 35° C.
Protocol: as §1

[8] = test system: Candida albicans ATCC 14053; assay: MIC assay, Candida standard strain (CLSI M27-A3); assay type: cell-based; settings: ATCC14053, 24 h, 35° C.
Protocol: as §1

[9] = test system: Candida albicans CICC 1943; assay: MIC assay, Candida standard strain (CLSI M27-A3); assay type: cell-based; settings: CICC1943, 24 h, 35° C.
Protocol: as §1

[10] = test system: Candida albicans ATCC 18804; assay: MIC assay, Candida standard strain (CLSI M27-A3); assay type: cell-based; settings: ATCC18804, 24 h, 35° C.
Protocol: as §1

[11] = test system: C. parapsilosis ATCC 22019; assay: MIC assay, Candida standard strain (CLSI M27-A3); assay type: cell-based; settings: Lodderomyces parapsilosis, ATCC22019; C. parapsilosis ATCC 22019 (quality-control strain); 24 h, 35° C.
Protocol: as §1

[12] = test system: Candida albicans ATCC MYA-1023; assay: MIC assay, Candida standard strain (CLSI M27-A3); assay type: cell-based; settings: 24 h, 35° C.
Protocol: as §1

[13] = test system: Candida albicans ATCC MYA-2876; assay: MIC assay, Candida standard strain (CLSI M27-A3); assay type: cell-based; settings: 24 h, 35° C.
Protocol: as §1

[14] = test system: Candida albicans ATCC 10231; assay: MIC assay, Candida standard strain (CLSI M27-A3); assay type: cell-based; settings: ATCC10231, 24 h, 35° C., >50% growth inhibition
Protocol: as §1

[15] = test system: C. glabrata ATCC 15126; assay: MIC assay, Candida standard strain (CLSI M27-A3); assay type: cell-based; settings: Nakaseomyces glabratus, ATCC15126, 24 h, 35° C.
Protocol: as §1

[16] = test system: C. krusei ATCC 6258; assay: MIC assay, Candida standard strain (CLSI M27-A3); assay type: cell-based; settings: Pichia kudriavzevii, ATCC6258; C. krusei ATCC 6258 (quality-control strain); 24 h, 35° C.
Protocol: as §1

[17] = test system: Candida albicans ATCC 90028; assay: MIC assay, Candida standard strain (CLSI M27-A3); assay type: cell-based; settings: ATCC90028, 24 h, 35° C., >50% growth inhibition
Protocol: as §1

[18] = test system: Candida albicans ATCC 90029; assay: MIC assay, Candida standard strain (CLSI M27-A3); assay type: cell-based; settings: ATCC90029, 24 h, 35° C.
Protocol: as §1

[19] = test system: Candida albicans ATCC MYA-4788; assay: MIC assay, Candida standard strain (CLSI M27-A3); assay type: cell-based; settings: 24 h, 35° C.
Protocol: as §1

[20] = test system: Aspergillus fumigatus ATCC 204305; assay: MEC assay, Aspergillus standard strain (CLSI M38-A2); assay type: cell-based; settings: 21-26 h, 28° C.
Protocol: After gradient dilution of test compounds, an MIC assay was performed on a Candida standard strain, and an MEC assay was performed on an Aspergillus standard strain.
The colonies on the plate were covered with 0.85% physiological saline (1 mL) or sterile water (polysorbate 20 was added to a final concentration of 0.1%-0.01%). […] The resuspension of spore hyphae was transferred to a sterile test tube, and left to stand for 3-5 min to precipitate heavier particles. The homogeneous suspension on the upper layer was transferred to a new sterile test tube, and the tube was capped closely, and subjected to vortex shaking for 15 s (note: the suspension can produce an aerosol when the cap is reopened). The concentration of the suspension was adjusted to an OD value of 0.09-0.13 at 530 nm by using a spectrophotometer. […] Within 2 h after dilution, 100 μL of the diluted suspension was added to each well in a 96-well plate (the concentration of spores in the final drug sensitive plate should be 0.4×10^4-5×10^4 CFU/mL).
In order to accurately determine MEC value, vortex oscillation should not be allowed before reading the plate.

[21] = test system: Pichia guilliermondii ATCC 6260; assay: MIC assay, yeast-type fungi (CLSI M27-A3); assay type: cell-based; settings: Meyerozyma guilliermondii, ATCC6260, 24 h, 35° C.
Protocol: as §1

[22] = Study on pharmacokinetic properties in rats after intravenous injection; settings: SD, rat, in vivo, 5 mg/kg

SMILES	MIC [1] [µg/mL]	MIC [2] [µg/mL]	MIC [3] [µg/mL]	MIC [4] [µg/mL]	MIC [5] [µg/mL]	MIC [6] [µg/mL]	MIC [7] [µg/mL]	MIC [8] [µg/mL]	MIC [9] [µg/mL]	MIC [10] [µg/mL]	MIC [11] [µg/mL]	MIC [12] [µg/mL]	MIC [13] [µg/mL]	MIC [14] [µg/mL]	MIC [15] [µg/mL]	MIC [16] [µg/mL]	MIC [17] [µg/mL]	MIC [18] [µg/mL]	MIC [19] [µg/mL]	MEC [20] [µg/mL]	also measured
CCCCCOc1ccc(C#Cc2ccc3cc(C(=O)N[C@H]4C[C@@H](O)[C@@H](OCC[N+](C)(C)C)NC(=O)[C@@H]5[C@@H](O)[C@@H](C)CN5C(=O)[C@H]([C@@H](C)O)NC(=O)[C@H]([C@H](O)[C@@H](O)c5ccc(O)cc5)NC(=O)[C@@H]5C[C@@H](O)CN5C(=O)[C@H]([C@@H](C)O)NC4=O)ccc3c2)cc1F [Example 10] (X3-[Orn(4R-OH,5R-OCH2CH2NMe3+)]T[Hyp][hTyr(3S-OH,4S-OH)]T[Pro(3S-OH,4S-Me)]; lactam 1-C)	8	≤ 0.015	0.03	≤ 0.015	≤ 0.015	≤ 0.015	≤ 0.015	≤ 0.015	0.03	≤ 0.015	0.5	≤ 0.015	≤ 0.015	0.03	0.06	0.06	≤ 0.015	≤ 0.015	≤ 0.015	≤0.015	MIC [21]: 0.25 µg/mL
CCCCCOc1c(F)cc(C#Cc2ccc3cc(C(=O)N[C@H]4C[C@@H](O)[C@@H](OCC[N+](C)(C)C)NC(=O)[C@@H]5[C@@H](O)[C@@H](C)CN5C(=O)[C@H]([C@@H](C)O)NC(=O)[C@H]([C@H](O)[C@@H](O)c5ccc(O)cc5)NC(=O)[C@@H]5C[C@@H](O)CN5C(=O)[C@H]([C@@H](C)O)NC4=O)ccc3c2)cc1F [Example 14] (X4-[Orn(4R-OH,5R-OCH2CH2NMe3+)]T[Hyp][hTyr(3S-OH,4S-OH)]T[Pro(3S-OH,4S-Me)]; lactam 1-C)	8	≤ 0.015	0.03	≤ 0.015	≤ 0.015	≤ 0.015	≤ 0.015	≤ 0.015	0.03	≤ 0.015	0.25	≤ 0.015	≤ 0.015	0.03	0.06	0.06	≤ 0.015	≤ 0.015	≤ 0.015	≤0.015	MIC [21]: 0.25 µg/mL
CCCCCOc1ccc(-c2ccc(-c3ccc(C(=O)N[C@H]4C[C@@H](O)[C@@H](OCC[N+](C)(C)C)NC(=O)[C@@H]5[C@@H](O)[C@@H](C)CN5C(=O)[C@H]([C@@H](C)O)NC(=O)[C@H]([C@H](O)[C@@H](O)c5ccc(O)cc5)NC(=O)[C@@H]5C[C@@H](O)CN5C(=O)[C@H]([C@@H](C)O)NC4=O)cc3)cc2)cc1 [Rezafungin, rezafungin, reference compound] ({pTerphenylCO(4''-OnC5H11)}-[Orn(4R-OH,5R-OCH2CH2NMe3+)]T[Hyp][hTyr(3S-OH,4S-OH)]T[Pro(3S-OH,4S-Me)]; lactam 1-C)	16	≤ 0.015	≤ 0.015	≤ 0.015	≤ 0.015	≤ 0.015	≤ 0.015	≤ 0.015	≤ 0.015	≤ 0.015	0.5	≤ 0.015	≤ 0.015	≤ 0.015	0.06	0.03	≤ 0.015	≤ 0.015	≤ 0.015	≤0.015	AUC(0-inf) [22]: 104000 ng·h/mL; AUC(0-t) [22]: 89000 ng·h/mL; Cmax [22]: 4750 ng/mL; MRT last [22]: 20.2 h; Vd [22]: 1.9 L/kg; clearance [22]: 0.8 mL/min/kg; half-life [22]: 27.5 h; MIC [21]: 0.25 µg/mL
